Patent US6489348B1, “Fungicidal mixtures based on amide compounds and pyridine derivatives” (BASF Aktiengesellschaft, priority 1997, dated 2002)

System: powdery mildew of wheat (Erysiphe graminis forma specialis tritici)
Assay: Activity against powdery mildew of wheat (protective spray test on potted seedlings)
Type: in vivo
Conditions: evaluated after 7 days
Protocol: The active ingredients, separately or together, are formulated as 10% emulsion in a mixture of 63% by weight of cyclohexanone and 27% by weight of emulsifier, and diluted with water to the desired concentration.
Evaluation is carried out by determining the infected leaf areas in percent. These percentages are converted into efficacies. The efficacy (W) is calculated as follows using Abbot's formula: […]
α corresponds to the fungal infection of the treated plants in % and β corresponds to the fungal infection of the untreated (control) plants in % An efficacy of 0 means that the infection level of the treated plants corresponds to that of the untreated control plants; an efficacy of 100 means that the treated plants were not infected.
The expected efficacies of the mixtures of the active ingredients were determined using Colby's formula [R. S. Colby, Weeds 15, 20-22 (1967)] and compared with the observed efficacies.
Colby formula: E=x+y −x·y/100
E expected efficacy, expressed in % of the untreated control, when using the mixture of the active ingredients A and B at the concentrations a and b x efficacy, expressed in % of the untreated control, when using active ingredient A at a concentration of a y efficacy, expressed in % of the untreated control, when using active ingredient B at a concentration of b Leaves of potted […] seedlings of the variety “Fruhgold” were sprayed to runoff point with an aqueous formulation of active ingredient prepared from a stock solution consisting of 10% of active ingredient, 63% of cyclohexanone and 27% of emulsifier. 24 hours after the spray coating had dried on, the leaves were dusted with spores of powdery mildew of wheat (Erysiphe graminis forma specialis tritici). The test plants were subsequently kept in a greenhouse at 20-24° C. and 60-90% relative atmospheric humidity. After 7 days, the extent of the mildew development was determined visually in % infection of the total leaf area.

[1] = 16 ppm active ingredient in the spray liquor
[2] = 63 ppm active ingredient in the spray liquor

SMILES | Efficacy in % of the untreated control [1] [%] | Efficacy in % of the untreated control [2] [%]
O=C(Nc1ccccc1-c1ccc(F)cc1)c1cccnc1Cl [I.1] | 0 | 0
O=C(Nc1ccccc1-c1ccc(Cl)cc1)c1cccnc1Cl [I.2] | 0 | 0
